Read-outs that look alike come from different tables or passages of the source.
How the values were obtained:
Type in all cases: cell-based
PPAR-alpha = target: T1, PPAR-alpha (Homo sapiens, UniProt Q07869); assay: human PPAR-GAL4 chimera luciferase reporter assay in CV-1 cells, PPAR-alpha
T1 construct: expressed in transfected cells; host or cells: CV-1 cells
T1 sequence (Q07869 239-466 limits assumed): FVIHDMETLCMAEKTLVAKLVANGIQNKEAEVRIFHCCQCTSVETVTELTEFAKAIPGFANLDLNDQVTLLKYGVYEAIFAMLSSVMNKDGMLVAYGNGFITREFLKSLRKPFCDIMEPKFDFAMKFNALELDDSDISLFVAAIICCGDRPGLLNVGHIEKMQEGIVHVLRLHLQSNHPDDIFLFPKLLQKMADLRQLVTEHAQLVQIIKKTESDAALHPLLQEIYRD
Procedure: (§1) The compounds were evaluated in a cell-based assay to determine their human PPAR activity. The plasmids for human PPAR-GAL4 chimeras were prepared by fusing amplified cDNAs encoding the LBDs of PPARs to the C-terminal end of the yeast GAL4 DNA binding domain. CV-1 cells were grown and transiently transected with PerFectin (GTS, San Diego, Calif.) according to the manufacturer's protocol along with a luciferase reporter. Eight hours after transfection, 50 μl of cells were replated into 384 well plates ([…]). Sixteen hours after replating, cells were treated with either compounds or 1% DMSO for 24 hours. Luciferase activity was then assayed with Britelite (Perkin Elmer) following the manufacturer's protocol and measured with either the Perkin Elmer Viewlux or Molecular Devices Acquest.
(§2) Compounds may be screened for functional potency in transient transfection assays in CV-1 cells for their ability to activate the PPAR subtypes (transactivation assay). A previously established chimeric receptor system was utilized to allow comparison of the relative transcriptional activity of the receptor subtypes on the same synthetic response element and to prevent endogenous receptor activation from complicating the interpretation of results. See, for example, Lehmann, J. M.; Moore, L. B.; Smith-Oliver, T. A; Wilkinson, W. O.; Willson, T. M.; Kliewer, S. A., An antidiabetic thiazolidinedione is a high affinity ligand for peroxisome proliferator-activated receptory γ (PPARγ), J. Biol. Chem., 1995, 270, 12953-6. The ligand binding domains for murine and human PPAR-alpha, PPAR-gamma, and PPAR-delta are each fused to the yeast transcription factor GAL4 DNA binding domain. CV-1 cells were transiently transfected with expression vectors for the respective PPAR chimera along with a reporter construct containing four or five copies of the GAL4 DNA binding site driving expression of luciferase. After 8-16 h, the cells are replated into multi-well assay plates and the media is exchanged to phenol-red free DME medium supplemented with 5% delipidated calf serum. 4 hours after replating, cells were treated with either compounds or 1% DMSO for 20-24 hours. Luciferase activity was then assayed with Britelite (Perkin Elmer) following the manufacturer's protocol and measured with either the Perkin Elmer Viewlux or Molecular Devices Acquest (see, for example, Kliewer, S. A., et. al. Cell 1995, 83, 813-819). Rosiglitazone is used as a positive control in the hPPAR-γ assay. Wy-14643 and GW7647 is used as a positive control in the hPPAR-α assay. GW501516 is used as the positive control in the hPPAR-δ assay.

PPAR-gamma = target: T2, PPAR-gamma (Homo sapiens, UniProt P37231); assay: human PPAR-GAL4 chimera luciferase reporter assay in CV-1 cells, PPAR-gamma
T2 construct: expressed in transfected cells; host or cells: CV-1 cells
T2 sequence (P37231 238-503 limits assumed): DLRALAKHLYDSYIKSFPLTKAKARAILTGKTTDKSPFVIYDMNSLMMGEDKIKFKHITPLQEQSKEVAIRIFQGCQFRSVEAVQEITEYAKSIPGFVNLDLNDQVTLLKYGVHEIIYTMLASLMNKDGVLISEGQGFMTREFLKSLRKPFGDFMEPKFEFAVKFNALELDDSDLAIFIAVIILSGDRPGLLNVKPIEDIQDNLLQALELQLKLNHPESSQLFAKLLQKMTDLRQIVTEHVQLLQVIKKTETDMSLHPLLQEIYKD
Procedure: as §1, §2

PPAR-delta = target: T3, PPAR-delta (Homo sapiens, UniProt Q03181); assay: human PPAR-GAL4 chimera luciferase reporter assay in CV-1 cells, PPAR-delta
T3 construct: expressed in transfected cells; host or cells: CV-1 cells
T3 sequence (Q03181 211-439 limits assumed): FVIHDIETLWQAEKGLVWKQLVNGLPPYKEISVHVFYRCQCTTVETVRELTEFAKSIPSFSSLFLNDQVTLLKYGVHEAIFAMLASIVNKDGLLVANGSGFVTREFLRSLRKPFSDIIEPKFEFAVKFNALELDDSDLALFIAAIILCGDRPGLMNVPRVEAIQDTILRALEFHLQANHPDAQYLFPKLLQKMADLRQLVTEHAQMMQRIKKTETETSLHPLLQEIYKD
Procedure: as §1, §2

[1] = Table 2, Examples 1-10, read-out: PPAR α EC50
[2] = Table 2, Examples 1-10, read-out: PPAR γ EC50
[3] = Table 2, Examples 1-10, read-out: PPAR δ EC50
[4] = Table 3, Examples 11-25, read-out: PPAR alpha (EC50)
[5] = Table 3, Examples 11-25, read-out: PPAR gamma (EC50)
[6] = Table 3, Examples 11-25, read-out: PPAR delta (EC50)

EC50 (PPAR-alpha; [1]) [µM] | EC50 (PPAR-gamma; [2]) [µM] | EC50 (PPAR-delta; [3]) [µM] | EC50 (PPAR-alpha; [4]) [µM] | EC50 (PPAR-gamma; [5]) [µM] | EC50 (PPAR-delta; [6]) [µM] | SMILES
– | – | – | > 100 | 5 to 100 | 5 to 100 | Cc1nc(-c2ccc(C(F)(F)F)cc2)sc1Cn1ccc2cccc(OCC(=O)O)c21 [Example 14, {1-[4-Methyl-2-(4-trifluoromethyl-phenyl)-thiazol-5-ylmethyl]-1H-indol-7-yloxy}-acetic acid]
– | – | – | 5 to 100 | 5 to 100 | < 5 | Cc1nc(-c2ccc(C(F)(F)F)cc2)sc1Cn1cc(CC(=O)O)c2ccccc21 [Example 24, {1-[4-Methyl-2-(4-trifluoromethyl-phenyl)-thiazol-5-ylmethyl]-1H-indol-3-yl}acetic acid]
– | – | – | < 5 | 5 to 100 | 5 to 100 | Cc1nc(-c2ccc(C(F)(F)F)cc2)sc1CCn1ccc2ccc(OC(C)(C)C(=O)O)cc21 [Example 23, 2-Methyl-2-(1-{2-[4-methyl-2-(4-trifluoromethyl-phenyl)-thiazol-5-yl]-ethyl}-1H-indol-6-yloxy)-propionic acid]
– | – | – | < 5 | 5 to 100 | 5 to 100 | Cc1nc(-c2ccc(C(F)(F)F)cc2)sc1CCN1CCc2ccc(OC(C)(C)C(=O)O)cc21 [Example 20, 2-Methyl-2-(1-{2-[4-methyl-2-(4-trifluoromethyl-phenyl)-thiazol-5-yl]-ethyl}-2,3-dihydro-1H-indol-6-yloxy)-propionic acid]
– | – | – | < 5 | 5 to 100 | < 5 | Cc1nc(-c2ccc(C(F)(F)F)cc2)sc1Cn1ccc2cc(OC(C)(C)C(=O)O)ccc21 [Example 15, 2-Methyl-2-{1-[4-methyl-2-(4-trifluoromethyl-phenyl)-thiazol-5-ylmethyl]-1H-indol-5-yloxy}-propionic acid]
– | – | – | 5 to 100 | 5 to 100 | 5 to 100 | Cc1nc(-c2ccc(C(F)(F)F)cc2)sc1CCn1ccc2cc(OCC(=O)O)ccc21 [Example 18, (1-{2-[4-Methyl-2-(4-trifluoromethyl-phenyl)-thiazol-5-yl]-ethyl}-1H-indol-5-yloxy)-acetic acid]
– | – | – | 5 to 100 | 5 to 100 | 5 to 100 | Cc1nc(-c2ccc(C(F)(F)F)cc2)sc1CCn1ccc2cc(OC(C)(C)C(=O)O)ccc21 [Example 21, 2-Methyl-2-(1-{2-[4-methyl-2-(4-trifluoromethyl-phenyl)-thiazol-5-yl]-ethyl}-1H-indol-5-yloxy)-propionic acid]
– | – | – | 5 to 100 | 5 to 100 | < 5 | Cc1nc(-c2ccc(C(F)(F)F)cc2)sc1Cn1ccc2ccc(OCC(=O)O)cc21 [Example 13, {1-[4-Methyl-2-(4-trifluoromethyl-phenyl)-thiazol-5-ylmethyl]-1H-indol-6-yloxy}-acetic acid]
– | – | – | 5 to 100 | 5 to 100 | < 5 | Cc1nc(-c2ccc(C(F)(F)F)cc2)sc1Cn1ccc2ccc(OC(C)(C)C(=O)O)cc21 [Example 16, 2-Methyl-2-{1-[4-methyl-2-(4-trifluoromethyl-phenyl)-thiazol-5-ylmethyl]-1H-indol-6-yloxy}-propionic acid]
– | – | – | 5 to 100 | 5 to 100 | 5 to 100 | Cc1nc(-c2ccc(C(F)(F)F)cc2)sc1CCN1CCc2cc(OCC(=O)O)ccc21 [Example 17, (1-{2-[4-Methyl-2-(4-trifluoromethyl-phenyl)-thiazol-5-yl]-ethyl}-2,3-dihydro-1H-indol-5-yloxy)-acetic acid]
– | – | – | 5 to 100 | 5 to 100 | 5 to 100 | Cc1nc(-c2ccc(C(F)(F)F)cc2)sc1CCn1ccc2ccc(OCC(=O)O)cc21 [Example 22, (1-{2-[4-Methyl-2-(4-trifluoromethyl-phenyl)-thiazol-5-yl]-ethyl}-1H-indol-6-yloxy)-acetic acid]

The remaining lines, values behind:

SMILES | EC50 (PPAR-alpha; [1]) [µM] | EC50 (PPAR-gamma; [2]) [µM] | EC50 (PPAR-delta; [3]) [µM] | EC50 (PPAR-alpha; [4]) [µM] | EC50 (PPAR-gamma; [5]) [µM] | EC50 (PPAR-delta; [6]) [µM]
Cc1nc(-c2ccc(C(F)(F)F)cc2)sc1COc1ccc2[nH]cc(CC(=O)O)c2c1 [Example 7, {5-[4-Methyl-2-(4-trifluoromethyl-phenyl)-thiazol-5-ylmethoxy]-1H-indol-3-yl}-acetic acid] | > 10 | < 1 | < 1 | – | – | –
Cc1nc(-c2ccc(C(F)(F)F)cc2)sc1Cn1ccc2cc(C(=O)O)ccc21 [Example 10, 1-[4-methyl-2-(4-trifluoromethyl-phenyl)-thiazol-5-ylmethyl]-1H-indole-5-carboxylic acid] | > 10 | > 10 | > 10 | – | – | –
Cc1nc(-c2ccc(C(F)(F)F)cc2)sc1COc1cccc2c1ccn2CC(=O)O [Example 4, {4-[4-methyl-2-(4-trifluoromethyl-phenyl)-thiazol-5-ylmethoxy]-indol-1-yl}-acetic acid] | > 10 | 1 to 10 | < 1 | – | – | –
Cc1nc(-c2ccc(C(F)(F)F)cc2)sc1COc1cccc(CC(=O)O)c1 [Example 1, {3-[4-methyl-2-(4-trifluoromethyl-phenyl)-thiazol-5-ylmethoxy]-phenyl}-acetic acid] | < 1 | 1 to 10 | < 1 | – | – | –
Cc1nc(-c2ccc(C(F)(F)F)cc2)sc1Cn1ccc2c(OCC(=O)O)cccc21 [Example 11, {1-[4-Methyl-2-(4-trifluoromethyl-phenyl)-thiazol-5-ylmethyl]-1H-indol-4-yloxy}acetic acid] | – | – | – | > 100 | > 100 | > 100
Cc1nc(-c2ccc(C(F)(F)F)cc2)sc1Cn1ccc2c(C(=O)O)cccc21 [Example 9, 1-[4-methyl-2-(4-trifluoromethyl-phenyl)-thiazol-5-ylmethyl]-1H-indole-4-carboxylic acid] | > 10 | > 10 | > 10 | – | – | –
Cc1nc(-c2ccc(C(F)(F)F)cc2)sc1COc1ccc2ccn(CC(=O)O)c2c1 [Example 5, {6-[4-methyl-2-(4-trifluoromethyl-phenyl)-thiazol-5-ylmethoxy]-indol-1-yl}-acetic acid] | > 10 | 1 to 10 | < 1 | – | – | –
Cc1nc(-c2ccc(C(F)(F)F)cc2)sc1COc1cccc2ccn(CC(=O)O)c12 [Example 6, {7-[4-methyl-2-(4-trifluoromethyl-phenyl)-thiazol-5-ylmethoxy]-indol-1-yl}-acetic acid] | > 10 | > 10 | > 10 | – | – | –
Cc1nc(-c2ccc(C(F)(F)F)cc2)sc1COc1ccc2c(ccn2CC(=O)O)c1 [Example 3, {5-[4-methyl-2-(4-trifluoromethyl-phenyl)-thiazol-5-ylmethoxy]-indol-1-yl}-acetic acid] | > 10 | > 10 | > 10 | – | – | –
Cc1nc(-c2ccc(C(F)(F)F)cc2)sc1CSc1cccc(CC(=O)O)c1 [Example 2, {3-[4-methyl-2-(4-trifluoromethyl-phenyl)-thiazol-5-ylmethylsulfanyl]-phenyl}-acetic acid] | < 1 | 1 to 10 | < 1 | – | – | –
Cc1nc(-c2ccc(C(F)(F)F)cc2)sc1Cn1ccc2cc(OCC(=O)O)ccc21 [Example 12, {1-[4-Methyl-2-(4-trifluoromethyl-phenyl)-thiazol-5-ylmethyl]-1H-indol-5-yloxy}-acetic acid] | – | – | – | 5 to 100 | 5 to 100 | 5 to 100
